Measurements as given in US8664206B2, “Diastereomers of 2-methylene-19-nor-22-methyl-1α,25-dihydroxyvitamin D3” (Wisconsin Alumni Research Foundation, priority 2010, dated 2014).
“Also recorded” adds a separate entry of the source.

Legend:
[1] = tested on: Sprague-Dawley rats; assay: Bone calcium mobilization (serum calcium); assay type: in vivo, rat; settings: for bone calcium mobilization activity compared with 1,25(OH)2D3 (in words): intraperitoneal doses
Procedure: (§1) Male, weanling Sprague-Dawley rats were placed on Diet 11 (0.47% Ca) diet+AEK oil for one week followed by Diet 11 (0.02% Ca)+AEK oil for 3 weeks. The rats were then switched to a diet containing 0.47% Ca for one week followed by two weeks on a diet containing 0.02% Ca. Dose administration began during the last week on 0.02% calcium diet. Four consecutive intraperitoneal doses were given approximately 24 hours apart. Twenty-four hours after the last dose, blood was collected from the severed neck and the concentration of serum calcium determined as a measure of bone calcium mobilization. The first 10 cm of the intestine was also collected for intestinal calcium transport analysis using the everted gut sac method.

[2] = tested on: Sprague-Dawley rats; assay: Intestinal calcium transport (everted gut sac method); assay type: in vivo, rat; settings: for net intestinal calcium transport, serosal to mucosal ratio / intestinal calcium transport activity compared with 1,25(OH)2D3 (in words): rat; for net intestinal calcium transport, serosal to mucosal ratio: relative to vehicle; for intestinal calcium transport activity compared with 1,25(OH)2D3 (in words): intraperitoneal doses
Procedure: as §1

[3] = tested on: HL-60 cells; assay: HL-60 differentiation (nitro blue tetrazolium reduction); assay type: cell-based, human; settings: for HL-60 cell differentiation, times more potent than the native hormone: fold MORE potent/active than 1,25(OH)2D3; for EC50: Homo sapiens, HL-60; for HL-60 Differentiation Relative Activity: relative to the native hormone 1,25(OH)2D3 in the same assay, (value for native hormone)/(value for working example), >1 = more active
Procedure: The study drugs were dissolved in ethanol and the concentrations determined using UV spectrophotometry. Serial dilutions were prepared so that a range of drug concentrations could be tested without changing the final concentration of ethanol (≦0.2%) present in the cell cultures.
Human promyelocytic leukemia (HL60) cells were grown in RPMI-1640 medium containing 10% fetal bovine serum. The cells were incubated at 37° C. in the presence of 5% CO2.
HL60 cells were plated at 1.2×10^5 cells/ml. Eighteen hours after plating, cells in duplicate were treated with drug. Four days later, the cells were harvested and a nitro blue tetrazolium reduction assay was performed (Collins et al., 1979; J. Exp. Med. 149:969-974). The percentage of differentiated cells was determined by counting a total of 200 cells and recording the number that contained intracellular black-blue formazan deposits. Verification of differentiation to monocytic cells was determined by measuring phagocytic activity (data not shown).

[4] = target: T1, vitamin D receptor (full-length recombinant rat receptor) (Rattus norvegicus, UniProt P13053); assay: Vitamin D receptor competitive binding; settings: for binding to the nuclear vitamin D receptor compared with 1,25(OH)2D3 (in words): competitive binding against 3H-1,25(OH)2D3, recombinant rat receptor; for Ki: read-out: Competitive VDR Binding (Ki)
T1 construct: Full-length recombinant rat receptor was expressed in E. coli; His tag (C); made in house; host or cells: E. coli BL21(DE3) Codon Plus RIL
T1 sequence (P13053 1-423): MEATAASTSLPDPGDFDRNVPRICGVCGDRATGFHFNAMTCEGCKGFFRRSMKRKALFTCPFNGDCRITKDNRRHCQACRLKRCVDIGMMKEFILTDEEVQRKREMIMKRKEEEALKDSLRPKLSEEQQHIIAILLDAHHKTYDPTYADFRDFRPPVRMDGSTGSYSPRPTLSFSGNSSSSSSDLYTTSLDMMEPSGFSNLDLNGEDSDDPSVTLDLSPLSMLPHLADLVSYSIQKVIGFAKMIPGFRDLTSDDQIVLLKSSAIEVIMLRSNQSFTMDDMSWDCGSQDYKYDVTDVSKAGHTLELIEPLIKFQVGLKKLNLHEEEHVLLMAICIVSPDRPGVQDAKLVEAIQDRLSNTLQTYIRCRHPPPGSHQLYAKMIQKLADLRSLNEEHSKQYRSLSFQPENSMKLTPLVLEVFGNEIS
Procedure: Full-length recombinant rat receptor was expressed in E. coli BL21(DE3) Codon Plus RIL cells and purified to homogeneity using two different column chromatography systems. The first system was a nickel affinity resin that utilizes the C-terminal histidine tag on this protein. The protein that was eluted from this resin was further purified using ion exchange chromatography (S-Sepharose Fast Flow). Aliquots of the purified protein were quick frozen in liquid nitrogen and stored at −80° C. until use. For use in binding assays, the protein was diluted in TEDK50 (50 mM Tris, 1.5 mM EDTA, pH 7.4, 5 mM DTT, 150 mM KCl) with 0.1% Chaps detergent. The receptor protein and ligand concentration was optimized such that no more than 20% of the added radiolabeled ligand was bound to the receptor.
Unlabeled ligands were dissolved in ethanol and the concentrations determined using UV spectrophotometry (1,25(OH)2D3: molar extinction coefficient=18,200 and λmax=265 nm; Analogs: molar extinction coefficient=42,000 and λmax=252 nm). Radiolabeled ligand (^3H-1,25(OH)2D3, ˜159 Ci/mmole) was added in ethanol at a final concentration of 1 nM.
Radiolabeled and unlabeled ligands were added to 100 mcl of the diluted protein at a final ethanol concentration of ≦10%, mixed and incubated overnight on ice to reach binding equilibrium. The following day, 100 mcl of hydroxylapatite slurry (50%) was added to each tube and mixed at 10-minute intervals for 30 minutes. The hydroxylapatite was collected by centrifugation and then washed three times with Tris-EDTA buffer (50 mM Tris, 1.5 mM EDTA, pH 7.4) containing 0.5% Titron X-100. After the final wash, the pellets were transferred to scintillation vials containing 4 ml of Biosafe II scintillation cocktail, mixed and placed in a scintillation counter. Total binding was determined from the tubes containing only radiolabeled ligand.

[5] = tested on: 24-hydroxylase (24OHase) gene promoter; assay: In vitro transcription assay (24-hydroxylase promoter-luciferase in ROS 17/2.8 bone cells); assay type: cell-based, rat; settings: for EC50: Rattus norvegicus; for 24OHase Transcription Relative Activity: relative to the native hormone 1,25(OH)2D3 in the same assay, (value for native hormone)/(value for working example), >1 = more active
Procedure: Transcription activity was measured in ROS 17/2.8 (bone) cells that were stably transfected with a 24-hydroxylase (24OHase) gene promoter upstream of a luciferase reporter gene (Arbour et al., 1998). Cells were given a range of doses. Sixteen hours after dosing the cells were harvested and luciferase activities were measured using a luminometer. RLU=relative luciferase units.

SMILES | Ki [4] | EC50 [3] | EC50 [5] | net intestinal calcium transport, serosal to mucosal ratio [2] | bone calcium mobilization activity compared with 1,25(OH)2D3 (in words) ([1]; rat) | intestinal calcium transport activity compared with 1,25(OH)2D3 (in words) [2] | binding to the nuclear vitamin D receptor compared with 1,25(OH)2D3 (in words) [4] | cell differentiation activity (in words) [3] | HL-60 Differentiation Relative Activity [3] | 24-hydroxylase transcription activity compared with 1,25(OH)2D3 (in words) ([5]; bone cells) | 24OHase Transcription Relative Activity [5] | also measured
C=C1C(O)CC(=CC=C2CCCC3(C)C2CCC3[C@@H](C)CCCC(C)(C)O)CC1O (single isomer, unassigned) [20R isomer of 2MD, 2-methylene-19-nor-1α,25-dihydroxyvitamin D3, reference compound] | – | – | – | −0.6 | – | – | – | – | – | – | – | net bone calcium mobilization activity ([1]; rat): 4.5 mg/dL; HL-60 cell differentiation, times more potent than the native hormone [3]: 0.95 times
C=C1C(O)CC(=CC=C2CCCC3(C)C2CCC3[C@@H](C)CCCC(C)(C)O)CC1O (single isomer, unassigned) [20S isomer of 2MD, 2-methylene-19-nor-1α,25-dihydroxyvitamin D3, reference compound] | – | – | – | −0.9 | – | – | – | – | – | – | – | net bone calcium mobilization activity ([1]; rat): 9.3 mg/dL; HL-60 cell differentiation, times more potent than the native hormone [3]: 27 times
C=C1[C@H](O)CC(=C/C=C2\CCC[C@@]3(C)C2CC[C@@H]3[C@@H](C)[C@H](C)CCC(C)(C)O)C[C@H]1O (stereo partly drawn) [AGS-1, (20S,22R)-2-methylene-19-nor-22-methyl-1α,25-dihydroxyvitamin D3] | 0.07 nM | 0.01 nM | 0.008 nM | 4.3 | more potent than 1,25-(OH)2D3; also recorded: does show activity with regard to net bone calcium mobilization; also recorded: more efficacious; also recorded: significantly higher bone calcium mobilization activity | more potent than 1,25-(OH)2D3; also recorded: higher potency in promoting intestinal calcium transport than the native hormone; also recorded: significantly higher | approximately equally effective as 1,25-(OH)2D3; also recorded: same affinity as 1,25(OH)2D3; also recorded: bind the vitamin D receptor | relatively high cell differentiation activity | 300 | relatively high 24-hydroxylase transcription activity | 38 | Net Bone Ca2+ Mobilization ([1]; at 780 pM dosage): 5.3 mg/dL; Net Intestinal Ca2+ Transport (serosal Ca2+ to mucosal Ca2+ ratio, S/M) ([2]; at 780 pM dosage): 9.9; transcription of the 24-hydroxylase gene, times more potent than 1,25(OH)2D3 ([5]; bone cells, fold MORE potent): ~40 times
C=C1[C@H](O)CC(=C/C=C2\CCC[C@@]3(C)C2CC[C@@H]3[C@@H](C)[C@@H](C)CCC(C)(C)O)C[C@H]1O (stereo partly drawn) [AGS-2, (20S,22S)-2-methylene-19-nor-22-methyl-1α,25-dihydroxyvitamin D3] | 8 nM | 20 nM | 3 nM | – | much reduced ability to mobilize calcium from bone compared to 1,25-(OH)2D3; also recorded: no net calcemic activity on bone; also recorded: essentially no ability to mobilize bone calcium except at extremely high concentrations | significant net intestinal calcium transport; also recorded: comparable or slightly higher intestinal calcium transport compared to 1,25(OH)2D3 | lower affinity relative to 1,25-(OH)2D3; also recorded: lower affinity than 1,25(OH)2D3; also recorded: bind the vitamin D receptor | relatively high cell differentiation activity | 0.15 | relatively high 24-hydroxylase transcription activity | 0.1 | Net Bone Ca2+ Mobilization ([1]; at 780 pM dosage): 0 mg/dL; bone calcium mobilization, times less potent than the native hormone ([1]; rat, fold LESS potent in releasing bone calcium stores): approximately 50 times; Net Intestinal Ca2+ Transport (serosal Ca2+ to mucosal Ca2+ ratio, S/M) ([2]; at 780 pM dosage): 4.3; transcription of the 24-hydroxylase gene, times less potent than 1,25(OH)2D3 ([5]; rat osteosarcoma cells, fold LESS potent): about 10 times
C=C1C(O)CC(=CC=C2CCCC3(C)C2CCC3[C@H](C)[C@H](C)CCC(C)(C)O)CC1O (stereo partly drawn) [SAG-2, (20R,22R)-2-methylene-19-nor-22-methyl-1α,25-dihydroxyvitamin D3] | – | – | – | – | – | – | – | – | – | unexpectedly low in comparison to the native hormone | – | –

Further lines, with some results ahead:

Ki [4] | EC50 [3] | EC50 [5] | SMILES | net intestinal calcium transport, serosal to mucosal ratio [2] | bone calcium mobilization activity compared with 1,25(OH)2D3 (in words) ([1]; rat) | intestinal calcium transport activity compared with 1,25(OH)2D3 (in words) [2] | binding to the nuclear vitamin D receptor compared with 1,25(OH)2D3 (in words) [4] | cell differentiation activity (in words) [3] | HL-60 Differentiation Relative Activity [3] | 24-hydroxylase transcription activity compared with 1,25(OH)2D3 (in words) ([5]; bone cells) | 24OHase Transcription Relative Activity [5] | also measured
0.09 nM | 0.6 nM | 0.3 nM | C=C1[C@H](O)CC(=C/C=C2\CCC[C@@]3(C)C2CC[C@@H]3[C@H](C)[C@@H](C)CCC(C)(C)O)C[C@H]1O (stereo partly drawn) [SAG-1, (20R,22S)-2-methylene-19-nor-22-methyl-1α,25-dihydroxyvitamin D3] | – | less potent than 1,25-(OH)2D3; also recorded: no net calcemic activity on bone; also recorded: less potent than the native hormone; also recorded: little or no ability to mobilize bone calcium except at extremely high doses | comparable or reduced potency in comparison to 1,25(OH)2D3 at lower concentrations but increased potency in comparison to 1,25(OH)2D3 at high concentrations | bind the vitamin D receptor | relatively high cell differentiation activity | 3.3 | approximately equal in potency to 1,25(OH)2D3 | 10 | Net Bone Ca2+ Mobilization ([1]; at 260 pM dosage): 0.3^7 mg/dL; Net Intestinal Ca2+ Transport (serosal Ca2+ to mucosal Ca2+ ratio, S/M) ([2]; at 260 pM dosage): 1.3^7
0.2 nM | 9 nM | 6 nM | C=C1[C@H](O)CC(=C/C=C2\CCC[C@@]3(C)C2CC[C@@H]3[C@H](C)[C@H](C)CCC(C)(C)O)C[C@H]1O (stereo partly drawn) [SAG-2, (20R,22R)-2-methylene-19-nor-22-methyl-1α,25-dihydroxyvitamin D3] | – | markedly lower than 1,25-(OH)2D3; also recorded: no net calcemic activity on bone; also recorded: very little to no activity in mobilizing calcium from bone stores; also recorded: little or no ability to mobilize bone calcium, even at extremely high concentrations | markedly lower than 1,25-(OH)2D3; also recorded: less potency compared to the native hormone; also recorded: little ability to increase transport, except at extremely high concentrations | less effective than 1,25-(OH)2D3; also recorded: bind the vitamin D receptor | – | 0.3 | – | 0.05 | Net Bone Ca2+ Mobilization ([1]; at 260 pM dosage): −0.1^7 mg/dL; Net Intestinal Ca2+ Transport (serosal Ca2+ to mucosal Ca2+ ratio, S/M) ([2]; at 260 pM dosage): 0.4^7; affinity for the nuclear vitamin D receptor, times less than 1,25(OH)2D3 ([4]; competitive binding, fold LESS affinity than native hormone): approximately 4 times
